Patent publication US20070128217A1 (priority 2003, published 2007)

How the values were obtained:
[1] = tested on: control sera (pooled serum of ten healthy LUMC hospital workers; commercial negative donor pooled serum from the Dutch bloodbank); format: binding, human; set-up: Binding of Control serum LUMC to linear peptides / Binding of Control serum Blood-bank to linear peptides / Binding of Control serum LUMC to looped peptides / Binding of Control Serum Blood-Bank to Looped peptides / Binding of Control serum LUMC to linear peptides of the protein M of SARS-CoV Urbani / Binding of Control serum Blood-bank to linear peptides of the protein M of SARS-CoV Urbani / Binding of Control serum LUMC to looped peptides of the protein M of SARS-CoV Urbani / Binding of Control Serum Blood-Bank to Looped peptides of the protein M of SARS-CoV Urbani: unit not given here
[2] = tested on: antibodies in sera from SARS patients (sera 1a, 1b, 2, 6, 37, 62, London, SARS-yellow, SARS-green); format: binding, human; set-up: Binding of serum 6 to linear peptides of protein X1 of SARS-CoV Urbani / Binding of serum 37 to linear peptides of protein X1 of SARS-CoV Urbani / Binding of serum 6 to looped/cyclic peptide (PEPSCAN-ELISA) / Binding of serum 37 to looped/cyclic peptide (PEPSCAN-ELISA) / Binding of serum 37 to looped/cyclic peptides of protein X1 of SARS-CoV Urbani / Binding of serum 6 to linear peptides of protein X2 / Binding of serum 37 to linear peptides of protein X2 / Binding of serum 37 to looped/cyclic peptides of protein X2 of SARS-CoV Urbani / Binding of serum 6 to linear peptides of protein M of SARS-CoV Urbani / Binding of serum 37 to linear peptides of protein M of SARS-CoV Urbani / Binding of serum 6 to looped/cyclic peptides of protein M of SARS-CoV Urbani / Binding of serum 37 to looped/cyclic peptides of protein M of SARS-CoV Urbani / Binding of serum 6 to linear peptides of protein X3 of SARS-CoV Urbani / Binding of serum 37 to linear peptides of protein X3 of SARS-CoV Urbani / Binding of serum 37 to looped/cyclic peptides of protein X3 of SARS-CoV Urbani / Binding of serum 6 to linear peptides of protein X4 of SARS-CoV Urbani / Binding of serum 37 to linear peptides of protein X4 of SARS-CoV Urbani / Binding of serum 37 to looped/cyclic peptides of protein X4 of SARS-CoV Urbani / Binding of serum 6 to linear peptides of protein X5 of SARS-CoV Urbani / Binding of serum 37 to linear peptides of protein X5 of SARS-CoV Urbani / Binding of serum 37 to looped/cyclic peptides of protein X5 of SARS-CoV Urbani / Binding of serum 6 to linear peptides of protein N of SARS-CoV Urbani / Binding of serum 37 to linear peptides of protein N of SARS-CoV Urbani / Binding of serum 6 to linear peptide (PEPSCAN-ELISA) / Binding of serum 1a to looped/cyclic peptides of protein N of SARS-CoV Urbani / Binding of serum 1b to looped/cyclic peptides of protein N of SARS-CoV Urbani / Binding of serum 2 to looped/cyclic peptides of protein N of SARS-CoV Urbani / Binding of serum 6 to looped/cyclic peptides of protein N of SARS-CoV Urbani / Binding of serum 37 to looped/cyclic peptides of protein N of SARS-CoV Urbani / Binding of serum 62 to looped/cyclic peptides of protein N of SARS-CoV Urbani / Binding of serum London to looped/cyclic peptides of protein N of SARS-CoV Urbani / Binding of serum SARS-green to looped/cyclic peptides of protein N of SARS-CoV Urbani: unit not given here
[3] = tested on: rabbit serum obtained by immunizing a rabbit with the SARS-CoV strain Frankfurt 1; format: binding; set-up: Binding of a rabbit serum to linear peptides / Binding of a rabbit serum to looped peptides / Rabbit serum linear peptides / Rabbit serum looped peptides / Binding of a rabbit serum to linear peptides of protein N of SARS-CoV Urbani (Rabbit serum linear peptides) / Binding of a rabbit serum to looped/cyclic peptides of protein N of SARS-CoV Urbani (Rabbit serum looped peptides): unit not given here

TEGDGISTPKLKEDY
Binding of Control Serum Blood-Bank to Looped peptides [1]: 0.5
Binding of Control serum Blood-bank to linear peptides [1]: 0.2
Binding of Control serum LUMC to linear peptides [1]: 0.2
Binding of Control serum LUMC to looped peptides [1]: 0.5
Binding of serum 1a to linear peptides of protein X1 of SARS-CoV Urbani [2]: 0.5
Binding of serum 1a to looped/cyclic peptides of protein X1 of SARS-CoV Urbani [2]: 0.5
Binding of serum 1b to linear peptides of protein X1 of SARS-CoV Urbani [2]: 0.3
Binding of serum 1b to looped/cyclic peptides of protein X1 of SARS-CoV Urbani [2]: 0.4
Binding of serum 2 to linear peptides of protein X1 of SARS-CoV Urbani [2]: 0.4
Binding of serum 2 to looped/cyclic peptides of protein X1 of SARS-CoV Urbani [2]: 0.5
Binding of serum 6 to linear peptides of protein X1 of SARS-CoV Urbani [2]: 0.2
Binding of serum 6 to looped/cyclic peptides of protein X1 of SARS-CoV Urbani [2]: 0.4
Binding of serum 37 to linear peptides of protein X1 of SARS-CoV Urbani [2]: 0.4
Binding of serum 37 to looped/cyclic peptides of protein X1 of SARS-CoV Urbani [2]: 0.4
Binding of serum 62 to linear peptides of protein X1 of SARS-CoV Urbani [2]: 0.3
Binding of serum 62 to looped/cyclic peptides of protein X1 of SARS-CoV Urbani [2]: 0.4
Binding of serum London to linear peptides of protein X1 of SARS-CoV Urbani [2]: 0.2
Binding of serum London to looped/cyclic peptides of protein X1 of SARS-CoV Urbani [2]: 0.2
Binding of serum SARS-green to linear peptides of protein X1 of SARS-CoV Urbani [2]: 0.1
Binding of serum SARS-green to looped/cyclic peptides of protein X1 of SARS-CoV Urbani [2]: 0.3
Binding of serum SARS-yellow to linear peptides of protein X1 of SARS-CoV Urbani [2]: 0.0
Binding of serum SARS-yellow to looped/cyclic peptides of protein X1 of SARS-CoV Urbani [2]: 0.3
Binding of a rabbit serum to linear peptides [3]: 0.1
Binding of a rabbit serum to looped peptides [3]: 0.5

VQIHTIDGSSGVANP
Binding of Control Serum Blood-Bank to Looped peptides [1]: 0.3
Binding of Control serum Blood-bank to linear peptides [1]: 0.5
Binding of Control serum LUMC to linear peptides [1]: 0.5
Binding of Control serum LUMC to looped peptides [1]: 0.4
Binding of serum 1a to linear peptides of protein X1 of SARS-CoV Urbani [2]: 0.7
Binding of serum 1a to looped/cyclic peptides of protein X1 of SARS-CoV Urbani [2]: 0.4
Binding of serum 1b to linear peptides of protein X1 of SARS-CoV Urbani [2]: 0.5
Binding of serum 1b to looped/cyclic peptides of protein X1 of SARS-CoV Urbani [2]: 0.4
Binding of serum 2 to linear peptides of protein X1 of SARS-CoV Urbani [2]: 0.6
Binding of serum 2 to looped/cyclic peptides of protein X1 of SARS-CoV Urbani [2]: 0.3
Binding of serum 6 to linear peptides of protein X1 of SARS-CoV Urbani [2]: 0.6
Binding of serum 6 to looped/cyclic peptides of protein X1 of SARS-CoV Urbani [2]: 0.3
Binding of serum 37 to linear peptides of protein X1 of SARS-CoV Urbani [2]: 0.7
Binding of serum 37 to looped/cyclic peptides of protein X1 of SARS-CoV Urbani [2]: 0.4
Binding of serum 62 to linear peptides of protein X1 of SARS-CoV Urbani [2]: 0.6
Binding of serum 62 to looped/cyclic peptides of protein X1 of SARS-CoV Urbani [2]: 0.5
Binding of serum London to linear peptides of protein X1 of SARS-CoV Urbani [2]: 0.3
Binding of serum London to looped/cyclic peptides of protein X1 of SARS-CoV Urbani [2]: 0.2
Binding of serum SARS-green to linear peptides of protein X1 of SARS-CoV Urbani [2]: 0.2
Binding of serum SARS-green to looped/cyclic peptides of protein X1 of SARS-CoV Urbani [2]: 0.3
Binding of serum SARS-yellow to linear peptides of protein X1 of SARS-CoV Urbani [2]: 0.4
Binding of serum SARS-yellow to looped/cyclic peptides of protein X1 of SARS-CoV Urbani [2]: 0.1
Binding of a rabbit serum to linear peptides [3]: 0.1
Binding of a rabbit serum to looped peptides [3]: 0.4

TDTIVVTEGDGISTP
Binding of Control Serum Blood-Bank to Looped peptides [1]: 0.4
Binding of Control serum Blood-bank to linear peptides [1]: 0.5
Binding of Control serum LUMC to linear peptides [1]: 0.5
Binding of Control serum LUMC to looped peptides [1]: 0.4
Binding of serum 1a to linear peptides of protein X1 of SARS-CoV Urbani [2]: 0.6
Binding of serum 1a to looped/cyclic peptides of protein X1 of SARS-CoV Urbani [2]: 0.4
Binding of serum 1b to linear peptides of protein X1 of SARS-CoV Urbani [2]: 0.5
Binding of serum 1b to looped/cyclic peptides of protein X1 of SARS-CoV Urbani [2]: 0.3
Binding of serum 2 to linear peptides of protein X1 of SARS-CoV Urbani [2]: 0.4
Binding of serum 2 to looped/cyclic peptides of protein X1 of SARS-CoV Urbani [2]: 0.2
Binding of serum 6 to linear peptides of protein X1 of SARS-CoV Urbani [2]: 0.5
Binding of serum 6 to looped/cyclic peptides of protein X1 of SARS-CoV Urbani [2]: 0.2
Binding of serum 37 to linear peptides of protein X1 of SARS-CoV Urbani [2]: 0.5
Binding of serum 37 to looped/cyclic peptides of protein X1 of SARS-CoV Urbani [2]: 0.3
Binding of serum 62 to linear peptides of protein X1 of SARS-CoV Urbani [2]: 0.4
Binding of serum 62 to looped/cyclic peptides of protein X1 of SARS-CoV Urbani [2]: 0.3
Binding of serum London to linear peptides of protein X1 of SARS-CoV Urbani [2]: 0.2
Binding of serum London to looped/cyclic peptides of protein X1 of SARS-CoV Urbani [2]: 0.1
Binding of serum SARS-green to linear peptides of protein X1 of SARS-CoV Urbani [2]: 0.3
Binding of serum SARS-green to looped/cyclic peptides of protein X1 of SARS-CoV Urbani [2]: 0.2
Binding of serum SARS-yellow to linear peptides of protein X1 of SARS-CoV Urbani [2]: 0.2
Binding of serum SARS-yellow to looped/cyclic peptides of protein X1 of SARS-CoV Urbani [2]: 0.4
Binding of a rabbit serum to linear peptides [3]: 0.1
Binding of a rabbit serum to looped peptides [3]: 0.3
